Data taken from PubChem BioAssay (NCI).
Where “and” joins values, the source holds several entries; their conditions need not be identical. Equal entries are not always repeated.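 Compound exposure: 48 hours, 5 concentrations, 96-well plates. GI50 is the concentration that inhibits growth by half. Definition used: TGI = concentration required for complete inhibition of growth.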

Tests used:
Experiment in all cases: growth of human tumour cells (NCI), 48 h
A549 NSCLC = tested on: A549 NSCLC
T-47D breast = tested on: T-47D breast
SNB-19 CNS = tested on: SNB-19 CNS
SR leukemia = tested on: SR leukemia
OVCAR-3 ovarian = tested on: OVCAR-3 ovarian
SF-295 CNS = tested on: SF-295 CNS
SK-MEL-2 melanoma = tested on: SK-MEL-2 melanoma
TK-10 renal = tested on: TK-10 renal
UACC-257 melanoma = tested on: UACC-257 melanoma
NCI/ADR-RES ovarian = tested on: NCI/ADR-RES ovarian

Structure (SMILES)	GI50 (A549 NSCLC) [µM]	TGI (A549 NSCLC)	GI50 (T-47D breast) [µM]	TGI (T-47D breast)	GI50 (SNB-19 CNS) [µM]	TGI (SNB-19 CNS)	GI50 (SR leukemia) [µM]	TGI (SR leukemia)	GI50 (OVCAR-3 ovarian) [µM]	TGI (OVCAR-3 ovarian)	GI50 (SF-295 CNS) [µM]	TGI (SF-295 CNS)	GI50 (SK-MEL-2 melanoma) [µM]	TGI (SK-MEL-2 melanoma)	GI50 (TK-10 renal) [µM]	TGI (TK-10 renal)	GI50 (UACC-257 melanoma) [µM]	TGI (UACC-257 melanoma)	GI50 (NCI/ADR-RES ovarian) [µM]	TGI (NCI/ADR-RES ovarian)
CN(C)CCNC(=O)c1ccc(-c2nc3ccc4[nH]ncc4c3c3c2C2CCC3C2)cc1 (configuration not stated)	1.65	12.8 µM	2.25	7.86 µM	2.69	9.81 µM	0.254	2.65 µM	1.71	5.9 µM	2.01	5.39 µM	1.55	3.74 µM	0.723	8.02 µM	3.07	9.95 µM	8.3	26.8 µM
CCC(C)Oc1nc2c(c(=O)n(C)c(=O)n2C)n1C (configuration not stated)	> 100	> 100 µM	> 100	> 100 µM	> 100	> 100 µM	> 100	> 100 µM	> 100	> 100 µM	> 100	> 100 µM	> 100	> 100 µM	> 100	> 100 µM	> 100	> 100 µM	> 100	> 100 µM
c1cc(-c2nnc(SSc3ncnc4nc[nH]c34)o2)ccn1	23	> 100 µM	0.467	> 100 µM	78.4	> 100 µM	0.576	> 100 µM	0.319	1.73 µM	0.51	12.8 µM			0.487	> 100 µM	9.34	> 100 µM	2.74	> 100 µM
O=[N+]([O-])c1nccn1CC(O)CN1CCCCC1 (configuration not stated)		> 100 µM		> 100 µM		> 100 µM		> 100 µM		> 100 µM		> 100 µM		> 100 µM		> 100 µM		> 100 µM		> 100 µM
CC[C@@]1(OC(=O)CN)C(=O)OCc2c1cc1n(c2=O)Cc2c-1nc1cc3c(cc1c2CCl)OCO3	0.0201	> 100 µM	< 0.01	7.79 µM	< 0.01	13.7 µM	< 0.01	> 100 µM	0.372	4.1 µM	< 0.01	11.2 µM	1.24	5.04 µM	0.947	7.62 µM	1.02	15.1 µM	< 0.01	0.0583 µM
COC(=O)C(CCC(=O)CCl)N1C(=O)c2ccccc2C1=O (configuration not stated)		35.3 µM		26.8 µM		37.1 µM		11.7 µM		16.7 µM		35.2 µM		21.9 µM		21.5 µM		22.2 µM		29.7 µM
CN1CCN(CCOc2ccc(-c3cnc4c(-c5cccc(F)c5)cnn4c3)cc2)CC1	1.9	3.94 µM	1.52	3.71 µM	1.72	3.8 µM	4.02	> 100 µM	1.87	4.03 µM	1.71	3.27 µM	1.98	4.27 µM	2.07	3.77 µM	2.33	5.71 µM	2.47	6.14 µM
CC1=C2C(=CC(C)(C)[C@@H]2O)C(=O)[C@](C)(O)C12CC2		0.191 µM and 1.12 µM	0.0489	0.359 µM and 0.0974 µM	0.0523	0.371 µM and 0.279 µM	0.00351	0.0744 µM and 0.268 µM	0.00835	0.0327 µM and 0.0422 µM	0.026	0.11 µM and 0.0503 µM	0.0196	0.0525 µM and 0.0223 µM	0.0511	0.222 µM and 0.236 µM		0.328 µM and 0.259 µM	0.0223	0.104 µM and 0.0155 µM
CCn1c(-c2cc3c([nH]c4ccccc43)c(-c3cccc(O)c3)n2)n[nH]c1=S	4	18.8 µM	2.36	9.12 µM	4.28	16.6 µM	1.67	6.97 µM	3.13	11.4 µM	3.24	22.8 µM	2.05	5.81 µM	3.64	14.8 µM	4.11	16.4 µM	3.15	42 µM
O=C1C2=C(C(=O)c3cnccc31)C1C=CC2CC1 (configuration not stated)	3.67	8.73 µM	0.374	1.5 µM	5.03	9.41 µM	3.22	> 21.2 µM	1.85	3.66 µM	5.36	12.4 µM	1.89	3.52 µM	5.54	10.4 µM	1.72	3.17 µM	1.51	3.5 µM
Cc1ncc(C(=O)Nc2ccc(CN3CCN(C)CC3)c(C(F)(F)F)c2)cc1C#Cc1ccc(N)nc1	0.531	4.41 µM	1.08	7.2 µM	1.22	5.06 µM	0.189	4.4 µM	0.556	4.16 µM	0.908	4.07 µM	0.212	0.816 µM	0.654	4.39 µM	0.582	3.25 µM	1.03	5.64 µM
COc1ccc(C(=O)c2cc3c(N)c(C(=O)Nc4ccccc4)sc3nc2C)cc1	0.638	> 100 µM	0.74	> 100 µM	2.02	> 100 µM	0.376	> 100 µM			0.639	> 100 µM	4.22	> 100 µM	8.04	> 100 µM	47.1	> 100 µM	0.816	> 100 µM
O=C(/C=C/c1ccc(O)c(O)c1)NCc1c[nH]c2ccccc12	> 100	> 100 µM	> 100	> 100 µM	> 100	> 100 µM	10	37 µM	28.4	> 100 µM	62.4	> 100 µM			18.1	> 100 µM	> 100	> 100 µM	> 100	> 100 µM
